The structures appear in SMILES notation. ≈ marks a conversion by molar mass, not a printed value. Counter-ions that a name gives are not always drawn. Where only a bound is given, the exact number is not on record here.

Common to all, as to assay type: cell-based
One test concerns Candida albicans 90028. In words: In vitro antifungal assay (Example IX), microdilution broth, MIC. To be noted: minimum inhibitory concentration (≥50% inhibition), 35° C., 40-48 h, RPMI1640. The protocol:
Measurement of antifungal activity: Antifungal activity of the compounds was evaluated in a microdilution broth assay as per Clinical and Laboratory Standard Institute methodology for yeast (for Candida and Cryptococcus) (1) and molds (for Aspergillus and Rhizomucor) (2). Candida albicans 90028, Aspergillus fumigatus MYA3626, Rhizomucor pusillus 46342 and Cryptococcus neoformans H99 strains were obtained from American Type Culture Collection (ATCC).
Preparation of Fungal Suspension. C. albicans 90028 and C. neoformans H99 strains were streaked from frozen stocks at −80° C. onto Sabouraud Dextrose Agar (SDA) plates. These were allowed to grow for 24 h (C. albicans) and 48 h (C. neoformans) at 35° C. before using them in the assay. 5-6 individual colonies were picked and diluted into sterile water to obtain a fungal suspension. The cell density of the suspension was determined and the culture diluted with RPMI1640 medium to obtain a fungal suspension of 2.5×10^3 cells/mL. The suspension was used in the MIC measurement as described below.
Preparation of Compound Stocks and Intermediate Dilutions: The compounds were weighed and DMSO was added to prepare a 10 mg/mL stock. The solutions were mixed by vortexing and sonication at 37° C. for 5-10 mins. The resulting solutions were sterile filtered using a PTFE filter, and aliquoted (12 μL or as needed) and stored at −20° C. Intermediate compound dilutions were prepared in sterile polypropylene tubes in 100% DMSO. The compound stock solution was first diluted in DMSO to obtain a concentration of […] to 0.19 μg/mL.
MIC/MEC Measurement: 99 μL 1 of the fungal suspension in RPMI1640 prepared as above was added to each well of a 96-well round bottom assay plate. 1 μL of the intermediate compound dilutions (200-0.19 μg/mL) were added to wells of the plate. This led to a 100-fold dilution of the intermediate dilutions resulting in a final compound concentration of 2-0.0019 μg/mL in the plate. 1 μL of DMSO was added to “No drug” control wells. The solutions were mixed by shaking on a plate shaker for 10 mins and plates incubated at 35° C. for 40-48 h (C. albicans, A. fumigatus, R. pusillus) and 72 h (Cryptococcus). […] This was validated by thorough mixing and reading at 600 nm on a microplate reader. The minimum concentration that led to shortening of hyphae as compared to hyphal growth in DMSO control wells was determined as the minimum effective concentration (MEC) for A. fumigatus and R. pusillus (as read for echinocandins). The use of the MIC and MEC endpoints against yeasts and molds, respectively has been described by Pfaller M A, Duncanson F, Messer S A, Moet G J, Jones R N, Castanheira M. Antimicrob Agents Chemother. 2011. 55(11):5155-8. In vitro activity of a novel broad-spectrum antifungal, E1210, tested against Aspergillus spp. determined by CLSI and EUCAST broth microdilution methods. Results are shown in Table 2, and the letters indicate the following ranges in μg/mL: […]

The test system of test [1] is Aspergillus fumigatus MYA3626. The test is described as follows: In vitro antifungal assay (Example IX), microdilution broth, MEC. To be noted: minimum effective concentration (shortening of hyphae), 35° C., 40-48 h, RPMI1640. How it is done:
(§1) Measurement of antifungal activity: […] Candida albicans 90028, Aspergillus fumigatus MYA3626, Rhizomucor pusillus 46342 and Cryptococcus neoformans […] strains were obtained from American Type Culture Collection (ATCC). […] (A. fumigatus) and 35° C. (R. pusillus). Water containing 1% Tween was directly added to the agar plate and gently agitated to wet and remove the Aspergillus conidia. For R. pusillus, water was added to the surface and gently massaged to wet and remove the spores. For both species, the conidia or spores and mycelial fragments were collected, followed by removal of mycelium, conidiophores and large clumps of conidia/spores. The resulting spore suspension was counted and diluted into RPMI1640 medium to adjust to a final suspension of 1-2×10^4 spores/mL. The suspension was used in the MEC measurement as described below. […] The compounds were weighed and DMSO was added to prepare a 10 mg/mL stock. The solutions were mixed by vortexing and sonication at 37° C. for 5-10 mins. The resulting solutions were sterile filtered using a PTFE filter, and aliquoted (12 μL or as needed) and stored at -20° C. Intermediate compound dilutions were prepared in sterile polypropylene tubes in 100% DMSO. […] This was validated by thorough mixing and reading at 600 nm on a microplate reader. The minimum concentration that led to shortening of hyphae as compared to hyphal growth in DMSO control wells was determined as the minimum effective concentration (MEC) for A. fumigatus and R. pusillus (as read for echinocandins). The use of the MIC and MEC endpoints against yeasts and molds, respectively has been described by Pfaller M A, Duncanson F, Messer S A, Moet G J, Jones […]. Antimicrob Agents Chemother. 2011. 55(11):5155-8. In vitro activity of a novel broad-spectrum antifungal, […], tested against Aspergillus spp. determined by CLSI and EUCAST broth microdilution methods. Results are shown in Table 2, and the letters indicate the following ranges in μg/mL: […]
On the technique in general: In broth dilution the organism is exposed to a series of concentrations in liquid medium.

The test system of test [2] is Rhizomucor pusillus 46342. The test is described as above. To be noted: minimum effective concentration (shortening of hyphae), 35° C., 40-48 h, RPMI1640. How it is done:
as §1

By MIC is commonly meant the lowest concentration found to suppress growth. Lower therefore signals greater potency. In general, minimal effective concentration refers to the smallest amount tested that counted as effective. Read a high minimal effective concentration as a need for much substance. With `Nc1ncccc1-c1cc(Cc2ccc(Nc3cccc(F)c3)nc2)no1` [compound 59, 5-((5-(2-aminopyridin-3-yl)isoxazol-3-yl)methyl)-N-(3-fluorophenyl)pyridin-2-amine], the MIC against Candida albicans 90028 lay within 0.1 to 1 µg/mL (≈ 0.277 to 2.77 µM). The results for the minimal effective concentration in test [1] and in test [2] were 0.1 to 1 µg/mL and more than 1 µg/mL, respectively.
`COc1ccc(F)cc1OCc1ccc(Cc2cc(-c3cccnc3N)on2)cc1` [compound 192, 3-(3-(4-((5-fluoro-2-methoxyphenoxy)methyl)benzyl)isoxazol-5-yl)pyridin-2-amine]: the MIC in the test on Candida albicans 90028 was in the range of 0.1 to 1 µg/mL (≈ 0.247 to 2.47 µM). Further, the minimal effective concentration is 0.1 to 1 µg/mL in test [1] and more than 1 µg/mL in test [2].
As to `Nc1ncccc1-c1cc(Cc2ccc(CCSCCOC=O)cc2)no1` [compound 98, 2-((4-((5-(2-aminopyridin-3-yl)isoxazol-3-yl)methyl)phenethyl)thio)ethyl formate], the MIC in the test on Candida albicans 90028 was in the range of 0.1 to 1 µg/mL. The minimal effective concentration was 0.1 to 1 µg/mL in test [1] and more than 1 µg/mL in test [2].
In the test with Candida albicans 90028, `Nc1ncccc1-c1cc(Cc2ccc(N3CCCC3c3ccccc3)nc2)no1` (stereo not drawn) [compound 229, 3-(3-((6-(2-phenylpyrrolidin-1-yl)pyridin-3-yl)methyl)isoxazol-5-yl)pyridin-2-amine] gave an MIC of more than 1 µg/mL. Besides, the minimal effective concentration in test [1] and in test [2] was more than 1 µg/mL throughout.
`Nc1ncccc1-c1cc(Cc2ccc(OCC3COC3)nc2)no1` [compound 44, 3-(3-((6-(oxetan-3-ylmethoxy)pyridin-3-yl)methyl)isoxazol-5-yl)pyridin-2-amine]: the MIC against Candida albicans 90028 lay within 0.1 to 1 µg/mL (≈ 0.296 to 2.96 µM). Besides, the minimal effective concentration in test [1] and in test [2] was more than 1 µg/mL throughout.
`Cn1ccc(COc2ccc(Cc3cc(-c4cccnc4N)on3)cn2)n1` [compound 45, 3-(3-((6-((1-methyl-1H-pyrazol-3-yl)methoxy)pyridin-3-yl)methyl)isoxazol-5-yl)pyridin-2-amine] displayed an MIC in the test on Candida albicans 90028 of 0.1 to 1 µg/mL (≈ 0.276 to 2.76 µM). Also, the minimal effective concentration was 0.1 to 1 µg/mL in test [1] and more than 1 µg/mL in test [2].
Compound `N#CCNCc1ccc(Cc2cc(-c3cccnc3N)on2)cc1` [compound 94, 2-((4-((5-(2-aminopyridin-3-yl)isoxazol-3-yl)methyl)benzyl)amino)acetonitrile] gave an MIC with Candida albicans 90028 of more than 1 µg/mL. Moreover, the minimal effective concentration in test [1] and in test [2] was more than 1 µg/mL each time.
The compound `Nc1ncccc1-c1cc(Cc2ccc(Cc3ccc4ncnn4c3)cc2)no1` [compound 13, 3-(3-(4-([1,2,4]triazolo[1,5-a]pyridin-6-ylmethyl)benzyl)isoxazol-5-yl)pyridin-2-amine] gave an MIC with Candida albicans 90028 of 0.1 to 1 µg/mL (≈ 0.261 to 2.61 µM). For the same compound, the minimal effective concentration in test [1] is 0.1 to 1 µg/mL; in test [2], more than 1 µg/mL.
`Nc1ncccc1-c1cc(Cc2ccc(F)nc2)no1` [E, 3-(3-((6-fluoropyridin-3-yl)methyl)isoxazol-5-yl)pyridin-2-amine] came in with an MIC with Candida albicans 90028 of more than 1 µg/mL. The minimal effective concentration in test [1] and in test [2] was more than 1 µg/mL throughout.
For `Nc1ncccc1-c1cc(Cc2ccc(COc3cccc4ccccc34)cc2)no1` [compound 24, 3-(3-(4-((naphthalen-1-yloxy)methyl)benzyl)isoxazol-5-yl)pyridin-2-amine], in the test on Candida albicans 90028, the MIC was more than 1 µg/mL. The minimal effective concentration in test [1] and in test [2] was more than 1 µg/mL throughout.
`Nc1ncccc1-c1cc(Cc2ccc(OCCc3c(F)cccc3Cl)nc2)no1` [Example 159, 3-(3-((6-(2-chloro-6-fluorophenethoxy)pyridin-3-yl)methyl)isoxazol-5-yl)pyridin-2-amine] gave an MIC against Candida albicans 90028 of 0.1 to 1 µg/mL (≈ 0.235 to 2.35 µM). In addition, the results for the minimal effective concentration in test [1] and in test [2] were 0.1 to 1 µg/mL and more than 1 µg/mL, respectively.
In turn, `Nc1ncccc1-c1cc(Cc2ccc(Cn3cc(CO)cn3)cc2)no1` [compound 102, (1-(4-((5-(2-aminopyridin-3-yl)isoxazol-3-yl)methyl)benzyl)-1H-pyrazol-4-yl)methanol] displayed an MIC against Candida albicans 90028 of more than 1 µg/mL. Besides, the minimal effective concentration in test [1] and in test [2] was more than 1 µg/mL throughout.
Compound `Nc1ncccc1-c1cc(Cc2ccc(Cn3cc4ccccc4n3)cc2)no1` [Example 171, 3-(3-(4-((2H-indazol-2-yl)methyl)benzyl)isoxazol-5-yl)pyridin-2-amine] displayed an MIC with Candida albicans 90028 of 0.01 to 0.1 µg/mL (≈ 0.0262 to 0.262 µM). Also, the minimal effective concentration in test [1] and in test [2] was 0.1 to 1 µg/mL each time.
In turn, `Nc1ncccc1-c1cc(Cc2ccc(Cc3cncnc3)cc2)no1` [compound 21, 3-(3-(4-(pyrimidin-5-ylmethyl)benzyl)isoxazol-5-yl)pyridin-2-amine] gave an MIC in the test with Candida albicans 90028 of 0.1 to 1 µg/mL (≈ 0.291 to 2.91 µM). In addition, the minimal effective concentration in test [1] is 0.1 to 1 µg/mL; in test [2] it was more than 1 µg/mL.
In turn, `CS(=O)(=O)Nc1cccc(Cc2ccc(Cc3cc(-c4cccnc4N)on3)cc2)c1` [compound 211, N-(3-(4-((5-(2-aminopyridin-3-yl)isoxazol-3-yl)methyl)benzyl)phenyl)methanesulfonamide] showed an MIC against Candida albicans 90028 of more than 1 µg/mL. The minimal effective concentration in test [1] and in test [2] was more than 1 µg/mL throughout.
Take `Cc1nccc(NCc2ccc(Cc3cc(-c4cccnc4N)on3)cc2)n1` [compound 33, N-(4-((5-(2-aminopyridin-3-yl)isoxazol-3-yl)methyl)benzyl)-2-methylpyrimidin-4-amine]: in the test on Candida albicans 90028, the MIC is more than 1 µg/mL. The minimal effective concentration in test [1] and in test [2] was more than 1 µg/mL in each case.
In turn, `CC(C)=CCOc1ccc(Cc2cc(-c3cccnc3N)on2)cn1` [Example 166, 3-(3-((6-((3-methylbut-2-en-1-yl)oxy)pyridin-3-yl)methyl)isoxazol-5-yl)pyridin-2-amine] returned an MIC with Candida albicans 90028 of 0.1 to 1 µg/mL (≈ 0.297 to 2.97 µM). In addition, the minimal effective concentration in test [1] fell in the range of 0.01 to 0.1 µg/mL; in test [2] it was 0.1 to 1 µg/mL.
`CC(C)(COc1ccc(Cc2cc(-c3cccnc3N)on2)cn1)c1ccccc1` [Example 163, 3-(3-((6-(2-methyl-2-phenylpropoxy)pyridin-3-yl)methyl)isoxazol-5-yl)pyridin-2-amine]: in the test with Candida albicans 90028, the MIC was more than 1 µg/mL. Besides, the minimal effective concentration in test [1] and in test [2] was 0.1 to 1 µg/mL each time.
`Nc1ncccc1-c1cc(Cc2ccc(CNCc3ccn[nH]3)cc2)no1` [compound 93, 3-(3-(4-((((1H-pyrazol-5-yl)methyl)amino)methyl)benzyl)isoxazol-5-yl)pyridin-2-amine] gave an MIC with Candida albicans 90028 of more than 1 µg/mL. Besides, the minimal effective concentration in test [1] and in test [2] was more than 1 µg/mL throughout.

The values are drawn from US11512079B2, “Heterocycle substituted pyridine derivative antifungal agents” (Amplyx Pharmaceuticals, Inc., priority 2017, dated 2022).
